Test results taken from patent publication US10584115B2, “Substituted pyridine and pyrazine BMI-1 inhibitors” (PTC Therapeutics, Inc., priority 2013, dated 2020).
Where two headings read alike, the source gives them in different places.

Experiments:
[1] = tested on: Bmi-1 protein; assay: Sandwich ELISA Assay (Bmi-1 protein level in HT-1080 cells after compound treatment); type: cell-based
Outline: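 Sandwich ELISA quantified Bmi-1 protein against recombinant standard (125–8000 pg/mL), with lysates captured overnight at 4 °C and signal by HRP/TMB at 450 nm (570 nm reference). Lysates came from HT-1080 cells incubated 40–48 h with test compounds in 0.5% DMSO.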

[2] = Table 1, Bmi-1 sandwich ELISA, read-out: ELISA EC50 value for Bmi-1 protein
[3] = read-out: ELISA EC50 value for Bmi-1 protein, Table 1, Bmi-1 sandwich ELISA

SMILES	melting point	EC50 [1, 2]	EC50 [1, 3]
Cc1nc2ccc(F)cn2c1-c1cncc(Nc2ccc(OC(F)(F)F)cc2)n1 [compound 246, 6-(6-fluoro-2-methylimidazo[1,2-a]pyridin-3-yl)-N-[4-(trifluoromethoxy)phenyl]pyrazin-2-amine]	163 to 165 °C	0.001 to 0.01 µM	
Cc1nc2ccc(F)cn2c1-c1cc(C#N)cc(Nc2ccc(OC(F)(F)F)cc2)n1 [compound 249, 2-(6-fluoro-2-methylimidazo[1,2-a]pyridin-3-yl)-6-{[4-(trifluoromethoxy)phenyl]amino}pyridine-4-carbonitrile]	209 to 210 °C	0.01 to 0.1 µM	
Cc1nc2ccc(F)cn2c1-c1cncc(Nc2cccc(F)c2)n1 [compound 595, 6-(6-fluoro-2-methylimidazo[1,2-a]pyridin-3-yl)-N-(3-fluorophenyl)pyrazin-2-amine]	270 to 273 °C	0.01 to 0.1 µM	
COc1cccc(Nc2cncc(-c3c(C)nc4ccc(F)cn34)n2)c1 [compound 596, 6-(6-fluoro-2-methylimidazo[1,2-a]pyridin-3-yl)-N-(3-methoxyphenyl)pyrazin-2-amine]	270 to 273 °C	0.001 to 0.01 µM	
Fc1cc(F)c2nc(C3CC3)n(-c3cncc(Nc4ccc(C(F)(F)F)cc4)n3)c2c1 [compound 461, 6-(2-cyclopropyl-4,6-difluoro-1H-benzimidazol-1-yl)-N-[4-(trifluoromethyl)phenyl]pyrazin-2-amine]	247 to 249 °C		0.01 to 0.1 µM
Cc1nn(Cc2ccccn2)c(C)c1-c1cncc(Nc2ccc(C(F)(F)F)cc2)n1 [compound 400, 6-[3,5-dimethyl-1-(pyridin-2-ylmethyl)-1H-pyrazol-4-yl]-N-[4-(trifluoromethyl)phenyl]pyrazin-2-amine]	50 to 51 °C	0.1 to 3 µM	
Cc1nc2ccc(F)cn2c1-c1cncc(Nc2ccc(OC(F)F)nc2)n1 [compound 480, N-[6-(difluoromethoxy)pyridin-3-yl]-6-(6-fluoro-2-methylimidazo[1,2-a]pyridin-3-yl)pyrazin-2-amine]	204 to 207 °C	0.1 to 3 µM	
Cc1nn(C)c(C)c1-c1cc(C#N)cc(Nc2ccc(OC(F)F)cc2)n1 [compound 264, 2-{[4-(difluoromethoxy)phenyl]amino}-6-(1,3,5-trimethyl-1H-pyrazol-4-yl)pyridine-4-carbonitrile]	144 to 145 °C	0.001 to 0.01 µM	
Cc1nn(CCn2ncnn2)c(C)c1-c1cncc(Nc2ccc(C(F)(F)F)cc2)n1 [compound 352, 6-{3,5-dimethyl-1-[2-(2H-tetrazol-2-yl)ethyl]-1H-pyrazol-4-yl}-N-[4-(trifluoromethyl)phenyl]pyrazin-2-amine]	138 to 139 °C		0.001 to 0.01 µM
Cc1nc2ccc(F)cc2n1-c1cncc(Nc2ccc(C#N)cc2)n1 [compound 555, 4-{[6-(6-fluoro-2-methyl-1H-benzimidazol-1-yl)pyrazin-2-yl]amino}benzonitrile]	300 to 303 °C	0.1 to 3 µM	
N#Cc1cc(Nc2ccc(OC(F)F)nc2)nc(-n2c(C3CC3)nc3c(F)cc(F)cc32)c1 [compound 478, 2-(2-cyclopropyl-4,6-difluoro-1H-benzimidazol-1-yl)-6-{[6-(difluoromethoxy)pyridin-3-yl]amino}pyridine-4-carbonitrile]	207 to 209 °C	0.01 to 0.1 µM	
Cc1nn(C)c(C)c1-c1cccc(Nc2ccc(OC(F)F)cc2)n1 [compound 146, N-[4-(difluoromethoxy)phenyl]-6-(1,3,5-trimethyl-1H-pyrazol-4-yl)pyridin-2-amine]	71 to 72 °C	0.01 to 0.1 µM	
CCc1nn(C)c(CC)c1-c1cncc(Nc2ccc(C(F)(F)F)cc2)n1 [compound 332, 6-(3,5-diethyl-1-methyl-1H-pyrazol-4-yl)-N-[4-(trifluoromethyl)phenyl]pyrazin-2-amine]	59 to 60 °C	0.01 to 0.1 µM	
CCn1nc(C)c(-c2cncc(Nc3ccc(C(F)(F)F)cc3)n2)c1C [compound 175, 6-(1-ethyl-3,5-dimethyl-1H-pyrazol-4-yl)-N-[4-(trifluoromethyl)phenyl]pyrazin-2-amine]	78 to 79 °C		0.001 to 0.01 µM
Fc1cc(F)c2nc(C3CC3)n(-c3cncc(Nc4ccc(C(F)(F)F)nc4)n3)c2c1 [compound 464, 6-(2-cyclopropyl-4,6-difluoro-1H-benzimidazol-1-yl)-N-[6-(trifluoromethyl)pyridin-3-yl]pyrazin-2-amine]	267 to 270 °C	0.01 to 0.1 µM	
CCn1nc(C)c(-c2cncc(Nc3ccc(OC(F)F)c(F)c3)n2)c1C [compound 382, N-[4-(difluoromethoxy)-3-fluorophenyl]-6-(1-ethyl-3,5-dimethyl-1H-pyrazol-4-yl)pyrazin-2-amine]	129 to 130 °C	0.001 to 0.01 µM	
Cc1cc(Nc2cc(C#N)cc(-c3c(C)nc4ccc(F)cn34)n2)cnc1OC(F)F [compound 470, 2-{[6-(difluoromethoxy)-5-methylpyridin-3-yl]amino}-6-(6-fluoro-2-methylimidazo[1,2-a]pyridin-3-yl)pyridine-4-carbonitrile]	219 to 222 °C	0.1 to 3 µM	
Nc1cc(Nc2ccc(C(F)(F)F)cc2)nc(-c2c(C3CC3)nc3ccc(F)cn23)c1 [compound 363, 6-(2-cyclopropyl-6-fluoroimidazo[1,2-a]pyridin-3-yl)-N^2-[4-(trifluoromethyl)phenyl]pyridine-2,4-diamine]	160 to 162 °C	0.1 to 3 µM	
CS(=O)(=O)c1ccc(Nc2cncc(-c3c(C(F)(F)F)nc4ccccn34)n2)cc1 [compound 68, N-[4-(methylsulfonyl)phenyl]-6-[2-(trifluoromethyl)imidazo[1,2-a]pyridin-3-yl]pyrazin-2-amine]	256 to 258 °C		0.1 to 3 µM
FC(F)(F)Oc1ccc(Nc2cncc(-c3cccc4nc(C5CC5)cn34)n2)cc1 [compound 87, 6-(2-cyclopropylimidazo[1,2-a]pyridin-5-yl)-N-[4-(trifluoromethoxy)phenyl]pyrazin-2-amine]	225 to 227 °C	0.1 to 3 µM	
FC(F)(F)c1ccc(Nc2cncc(-c3c(C4CC4)nc4ccccn34)n2)cc1 [compound 129, 6-(2-cyclopropylimidazo[1,2-a]pyridin-3-yl)-N-[4-(trifluoromethyl)phenyl]pyrazin-2-amine]	215 to 217 °C		0.001 to 0.01 µM
FC(F)Oc1ccc(Nc2cncc(-c3c(C4CC4)nc4ccccn34)n2)cc1 [compound 130, 6-(2-cyclopropylimidazo[1,2-a]pyridin-3-yl)-N-[4-(difluoromethoxy)phenyl]pyrazin-2-amine]	208 to 210 °C	0.001 to 0.01 µM	
COc1ccc(Nc2cc(C#N)cc(-c3c(C)nc4ccc(F)cn34)n2)cc1 [compound 649, 2-(6-fluoro-2-methylimidazo[1,2-a]pyridin-3-yl)-6-[(4-methoxyphenyl)amino}pyridine-4-carbonitrile]	190 to 192 °C	0.001 to 0.01 µM	
Cc1nc2ccc(F)cn2c1-c1cc(N)cc(Nc2ccc(C(F)(F)F)cc2)n1 [compound 316, 6-(6-fluoro-2-methylimidazo[1,2-a]pyridin-3-yl)-N^2-[4-(trifluoromethyl)phenyl]pyridine-2,4-diamine]	161 to 163 °C		0.001 to 0.01 µM
COc1cccc(Nc2cc(C#N)cc(-c3c(C)nc4ccc(F)cn34)n2)c1 [compound 650, 2-(6-fluoro-2-methylimidazo[1,2-a]pyridin-3-yl)-6-[(3-methoxyphenyl)amino}pyridine-4-carbonitrile]	247 to 250 °C	0.1 to 3 µM	
Cc1nn(Cc2ccccn2)c(C)c1-c1cncc(Nc2ccc(OC(F)F)cc2)n1 [compound 401, N-[4-(difluoromethoxy)phenyl]-6-[3,5-dimethyl-1-(pyridin-2-ylmethyl)-1H-pyrazol-4-yl]pyrazin-2-amine]	47 to 48 °C	0.1 to 3 µM	
CC(=O)n1nc(C)c(-c2cncc(Nc3ccc(C(F)(F)F)cc3)n2)c1C [compound 277, 1-[3,5-dimethyl-4-(6-{[4-(trifluoromethyl)phenyl]amino}pyrazin-2-yl)-1H-pyrazol-1-yl]ethanone]	199 to 200 °C	0.1 to 3 µM	
Cc1nc2ccc(F)cn2c1-c1cncc(Nc2ccccc2)n1 [compound 590, 6-(6-fluoro-2-methylimidazo[1,2-a]pyridin-3-yl)-N-phenylpyrazin-2-amine]	216 to 218 °C		0.01 to 0.1 µM
